According to the supplement of paper PMC10307832:

Tests used:
Assay in all cases: relative viability (nuclei count vs DMSO), 5 days (fraction); higher = more cells survive
Daporinad + Pemetrexed = compound: O=C(/C=C/c1cccnc1)NCCCCC1CCN(C(=O)c2ccccc2)CC1 [Daporinad] + Nc1nc2[nH]cc(CCc3ccc(C(=O)N[C@@H](CCC(=O)O)C(=O)O)cc3)c2c(=O)[nH]1 [Pemetrexed] (partner 0.2 µM)
Method in brief: (§1)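 Relative viability equals treated-well nuclei counts divided by vehicle-well nuclei counts. Counts came from 4× images of lung cancer cell lines grown in 1536-well plates for 5 days after pin-tool dosing on the day after seeding. Dosing used one drug alone or a fixed anchor-drug dose plus five library-drug doses (not always all listed) in √10 steps, and values are medians of duplicate plates.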

R406 + Pemetrexed = compound: COc1cc(Nc2ncc(F)c(Nc3ccc4c(n3)NC(=O)C(C)(C)O4)n2)cc(OC)c1OC [R406] + Nc1nc2[nH]cc(CCc3ccc(C(=O)N[C@@H](CCC(=O)O)C(=O)O)cc3)c2c(=O)[nH]1 [Pemetrexed] (partner 0.2 µM)
Method in brief: as §1

Daporinad + Trametinib = compound: O=C(/C=C/c1cccnc1)NCCCCC1CCN(C(=O)c2ccccc2)CC1 [Daporinad] + CC(=O)Nc1cccc(-n2c(=O)n(C3CC3)c(=O)c3c(Nc4ccc(I)cc4F)n(C)c(=O)c(C)c32)c1 [Trametinib] (partner 0.02 µM)
Method in brief: as §1

Daporinad + Foretinib = compound: O=C(/C=C/c1cccnc1)NCCCCC1CCN(C(=O)c2ccccc2)CC1 [Daporinad] + COc1cc2c(Oc3ccc(NC(=O)C4(C(=O)Nc5ccc(F)cc5)CC4)cc3F)ccnc2cc1OCCCN1CCOCC1 [Foretinib] (partner 0.25 µM)
Method in brief: as §1

Cell Line	relative viability (Daporinad + Pemetrexed; first compound 0.0005 µM)	relative viability (Daporinad + Pemetrexed; first compound 0.001581 µM)	relative viability (Daporinad + Pemetrexed; first compound 0.005 µM)	relative viability (Daporinad + Pemetrexed; first compound 0.01581 µM)	relative viability (R406 + Pemetrexed; first compound 0.08 µM)	relative viability (R406 + Pemetrexed; first compound 0.253 µM)	relative viability (R406 + Pemetrexed; first compound 0.8 µM)	relative viability (R406 + Pemetrexed; first compound 2.53 µM)	relative viability (R406 + Pemetrexed; first compound 8 µM)	relative viability (Daporinad + Trametinib; first compound 0.0005 µM)	relative viability (Daporinad + Trametinib; first compound 0.001581 µM)	relative viability (Daporinad + Trametinib; first compound 0.005 µM)	relative viability (Daporinad + Trametinib; first compound 0.01581 µM)	relative viability (Daporinad + Foretinib; first compound 0.0005 µM)	relative viability (Daporinad + Foretinib; first compound 0.001581 µM)	relative viability (Daporinad + Foretinib; first compound 0.005 µM)	relative viability (Daporinad + Foretinib; first compound 0.01581 µM)
NCI-H522	0.983	1.3	1.09	0.668	0.832	1.04	1.09	0.937	0.747	0.906	0.753	0.67	0.835	–	–	–	–
HCC-15	0.225	0.22	0.237	0.199	0.213	0.223	0.2	0.201	0.144	0.339	0.429	0.39	0.418	0.916	1.22	1.12	1.12
A-427	0.981	1.02	0.937	0.662	0.947	1.01	1.05	0.979	0.787	0.695	0.825	0.778	0.708	1.01	1.06	1.08	0.596
NCI-H2228	0.342	0.307	0.304	0.406	0.316	0.332	0.352	0.255	0.0888	0.439	0.18	0.576	0.531	0.904	0.82	1.24	1.09
NCI-H1734	0.473	0.422	0.425	0.353	0.394	0.417	0.453	0.45	0.322	0.725	0.764	0.724	0.491	0.871	0.875	0.938	0.679
NCI-H441	0.242	0.243	0.268	0.291	0.219	0.261	0.263	0.257	0.234	0.351	0.426	0.496	0.573	1.24	0.997	1.19	0.911
PC-3 [JPC-3]	1.05	1.14	1.34	1.07	1.08	1.25	1.25	0.882	0.455	0.667	0.714	0.758	0.842	0.978	1.03	1.12	1.05
NCI-H1915	0.474	0.505	0.499	0.174	0.498	0.475	0.497	0.439	0.36	0.28	0.309	0.284	0.368	1.16	1.07	1.17	1.08
NCI-H1666	0.902	0.839	0.862	0.806	0.825	1.05	0.86	0.718	0.674	0.692	0.843	0.821	0.9	0.962	0.958	0.91	0.943
HCC-366	0.187	–	0.152	0.104	0.161	0.17	0.172	0.164	0.132	0.332	–	0.376	0.409	0.962	0.844	0.972	0.959
NCI-H2170	0.277	0.25	0.252	0.252	0.194	0.262	0.238	0.24	0.221	0.789	0.943	0.84	0.948	0.764	1.03	1.05	1.01
NCI-H727	–	–	–	–	–	–	–	–	–	0.398	0.453	0.375	0.379	1.01	0.908	0.899	0.691
RERF-LC-KJ	0.465	0.482	0.587	0.568	0.457	0.487	0.473	0.458	0.381	0.788	1.01	0.955	0.921	0.787	0.809	0.911	0.886
NCI-H2342	0.782	0.739	0.862	0.819	0.737	0.835	0.862	0.749	0.774	1.04	0.82	0.782	0.844	1.09	0.974	1.01	0.969
Calu-6	–	–	–	–	–	–	–	–	–	–	–	–	–	0.768	0.874	0.772	0.35
LC-2-ad	0.263	0.27	0.285	0.256	0.281	0.322	0.238	0.238	0.216	0.907	0.983	0.863	0.914	1.05	0.97	0.969	1.06
CAL-12T	1.09	1.21	0.502	0.314	1.22	1.15	1.17	0.918	1	0.275	0.378	0.37	0.229	1.09	0.938	0.758	0.272
SK-LU-1	1.04	0.998	1.09	0.941	0.952	1.06	1.1	0.528	0.187	0.48	0.522	0.55	0.615	0.908	0.872	0.922	0.829
NCI-H1650	0.426	0.395	0.458	0.391	0.355	0.408	0.37	0.291	0.358	0.565	0.628	0.635	0.572	1.29	1.21	1.13	0.498
BEN	0.726	0.792	0.953	0.935	0.773	0.879	0.805	0.835	0.438	1.01	0.996	1.06	1.18	0.513	0.722	0.735	0.773
